Results: patent publication US12723063B2, “GIPR-agonist compounds” (Eli Lilly and Company, priority 2019, dated 2026)
*1 amine or outer side, *2 acyl side, *3 side chain or, on linkers, in order; H or OH if unused. Where a SMILES comes first, the peptide text is derived from it. Side-chain parts run from the residue outwards. [ ]: non-standard residue; d: D form. The star is where a group is joined. C20 diacid = O=C(O)CCCCCCCCCCCCCCCCCCC(=O)*; C18 diacid = O=C(O)CCCCCCCCCCCCCCCCC(=O)*; γGlu = O=C(O)[C@H](CCC(=O)[*:2])N[*:1]; αMeF = C[C@](N)(Cc1ccccc1)C(=O)O; 4Pal = N[C@@H](Cc1ccncc1)C(=O)O; αMeL = CC(C)C[C@](C)(N)C(=O)O; Orn = NCCC[C@H](N)C(=O)O; AEEA = NCCOCCOCC(=O)O; Aib = CC(C)(N)C(=O)O

Experiments:
human GcgR = molecular target: T1, human GcgR (Homo sapiens, UniProt P47871); test: [125I]-Glucagon binding, SPA with WGA beads, 0.1% bacitracin; details: geometric mean, read-out: hGcgR Ki
T1 construct: expressed in transfected cells; crude membranes
Method in brief: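 SPA competition binding with WGA beads on crude membranes from HEK293 cells stably expressing hGcgR. Buffer: 25 mM HEPES pH 7.4, 2.5 mM CaCl2, 1 mM MgCl2, 0.1% bacitracin, 0.003% Tween-20; 10-point 3-fold dilutions, NSB with 1 μM Gcg.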

human GIPR = molecular target: T2, human GIPR (Homo sapiens, UniProt P48546); test: [125I]-GIP binding, SPA with WGA beads, 0.1% bacitracin; details: geometric mean, read-out: hGIPR Ki
T2 construct: expressed in transfected cells; crude membranes
T2 sequence (P48546 22-466): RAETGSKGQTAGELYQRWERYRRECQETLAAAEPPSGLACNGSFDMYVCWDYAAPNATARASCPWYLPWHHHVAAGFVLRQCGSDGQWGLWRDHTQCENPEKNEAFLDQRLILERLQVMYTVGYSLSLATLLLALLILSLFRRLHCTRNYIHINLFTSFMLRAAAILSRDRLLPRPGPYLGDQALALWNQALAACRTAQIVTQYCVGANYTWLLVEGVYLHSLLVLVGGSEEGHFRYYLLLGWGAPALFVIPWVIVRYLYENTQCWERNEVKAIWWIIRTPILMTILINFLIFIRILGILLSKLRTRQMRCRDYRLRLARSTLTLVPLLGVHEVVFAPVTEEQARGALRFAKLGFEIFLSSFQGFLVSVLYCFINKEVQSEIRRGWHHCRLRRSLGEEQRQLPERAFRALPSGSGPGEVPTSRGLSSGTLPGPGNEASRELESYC
Method in brief: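 Ki values are geometric means (SEM, n independent days), derived from four-parameter nonlinear regression of IC50. Membranes came from hGIPR-expressing CHO cells.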

human GLP-1R = molecular target: T3, human GLP-1R (Homo sapiens, UniProt P43220); test: [125I]-GLP-1 binding, SPA with WGA beads, 0.1% bacitracin; details: geometric mean, read-out: hGLP1R Ki
T3 construct: expressed in transfected cells; crude membranes
Method in brief: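 Binding buffer was 25 mM HEPES pH 7.4 with 2.5 mM CaCl2, 1 mM MgCl2, 0.1% (w/v) bacitracin, 0.003% Tween-20 and EDTA-free protease inhibitors. Four-parameter regression gave IC50, converted to Ki (geometric mean, SEM, n independent days).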

T1 sequence (P47871 26-477): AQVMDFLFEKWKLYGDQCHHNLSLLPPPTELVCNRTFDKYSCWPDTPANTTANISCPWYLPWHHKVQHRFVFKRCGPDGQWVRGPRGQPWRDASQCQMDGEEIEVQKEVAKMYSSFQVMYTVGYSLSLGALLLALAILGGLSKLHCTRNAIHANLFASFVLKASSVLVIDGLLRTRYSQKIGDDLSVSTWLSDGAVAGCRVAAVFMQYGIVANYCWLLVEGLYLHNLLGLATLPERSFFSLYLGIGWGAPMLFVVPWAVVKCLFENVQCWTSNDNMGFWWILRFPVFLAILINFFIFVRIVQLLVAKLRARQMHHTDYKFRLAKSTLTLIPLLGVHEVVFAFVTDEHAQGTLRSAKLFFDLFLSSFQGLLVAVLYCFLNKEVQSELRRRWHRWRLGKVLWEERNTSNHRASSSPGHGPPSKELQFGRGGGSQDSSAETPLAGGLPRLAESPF
T3 sequence (P43220 24-463): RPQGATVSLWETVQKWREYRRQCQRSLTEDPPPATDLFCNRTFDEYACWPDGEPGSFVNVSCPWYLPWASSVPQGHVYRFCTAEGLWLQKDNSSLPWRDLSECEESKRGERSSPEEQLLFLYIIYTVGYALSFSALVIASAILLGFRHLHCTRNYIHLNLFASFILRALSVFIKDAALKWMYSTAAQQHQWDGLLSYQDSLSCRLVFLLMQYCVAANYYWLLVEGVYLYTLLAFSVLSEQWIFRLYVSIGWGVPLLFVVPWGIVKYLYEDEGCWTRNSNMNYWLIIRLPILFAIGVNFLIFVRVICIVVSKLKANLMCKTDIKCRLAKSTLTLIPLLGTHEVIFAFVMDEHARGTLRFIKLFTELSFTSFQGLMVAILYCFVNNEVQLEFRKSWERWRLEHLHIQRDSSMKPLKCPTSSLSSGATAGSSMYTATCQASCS

Row | Structure (SMILES) | Ki (human GcgR) [nM] | Ki (human GIPR) [nM] | Ki (human GLP-1R) [nM]
1 | CC[C@H](C)[C@H](NC(=O)[C@H](CO)NC(=O)[C@H](Cc1ccc(O)cc1)NC(=O)[C@H](CC(=O)O)NC(=O)[C@H](CO)NC(=O)[C@@H](NC(=O)[C@H](Cc1ccccc1)NC(=O)[C@@H](NC(=O)CNC(=O)[C@H](CCC(=O)O)NC(=O)[C@@H](C)NC(=O)[C@@H](N)Cc1ccc(O)cc1)[C@@H](C)O)[C@@H](C)CC)C(=O)N[C@@H](CC(C)C)C(=O)N[C@@H](CC(C)C)C(=O)N[C@@H](CC(=O)O)C(=O)N[C@@H](CCCCN)C(=O)N[C@@H](CCCCNC(=O)COCCOCCNC(=O)COCCOCCNC(=O)CC[C@H](NC(=O)CCCCCCCCCCCCCCCCCCC(=O)O)C(=O)O)C(=O)N[C@@H](C)C(=O)N[C@@H](CCC(N)=O)C(=O)NC(C)(C)C(=O)N[C@@H](CC(=O)O)C(=O)N[C@@H](Cc1ccccc1)C(=O)N[C@H](C(=O)N[C@@H](CC(N)=O)C(=O)N[C@@H](Cc1c[nH]c2ccccc12)C(=O)N[C@@H](CC(C)C)C(=O)N[C@@H](CC(C)C)C(=O)N[C@@H](C)C(=O)N[C@@H](CCC(N)=O)C(=O)NCC(=O)N1CCC[C@H]1C(=O)N[C@@H](CO)C(=O)N[C@@H](CO)C(=O)NCC(=O)N[C@@H](C)C(=O)N1CCC[C@H]1C(=O)N1CCC[C@H]1C(=O)N1CCC[C@H]1C(=O)N[C@@H](CO)C(N)=O)C(C)C [Example 1] | 228 | 0.0667 | 57.8
2 | CC[C@H](C)[C@H](NC(=O)[C@H](CCCN)NC(=O)[C@H](CC(=O)O)NC(=O)[C@H](CC(C)C)NC(=O)[C@](C)(CC(C)C)NC(=O)[C@@H](NC(=O)[C@H](CO)NC(=O)[C@H](Cc1ccc(O)cc1)NC(=O)[C@H](CC(=O)O)NC(=O)[C@H](CO)NC(=O)[C@@H](NC(=O)[C@H](Cc1ccccc1)NC(=O)[C@@H](NC(=O)CNC(=O)[C@H](CCC(=O)O)NC(=O)C(C)(C)NC(=O)[C@@H](N)Cc1ccc(O)cc1)[C@@H](C)O)[C@@H](C)CC)[C@@H](C)CC)C(=O)N[C@@H](Cc1c[nH]cn1)C(=O)N[C@@H](CCC(N)=O)C(=O)NC(C)(C)C(=O)N[C@@H](CCC(=O)O)C(=O)N[C@@H](Cc1ccccc1)C(=O)N[C@H](C(=O)N[C@@H](CCC(=O)O)C(=O)N[C@@H](Cc1ccc(O)cc1)C(=O)N[C@@H](CCCCNC(=O)COCCOCCNC(=O)COCCOCCNC(=O)CC[C@H](NC(=O)CCCCCCCCCCCCCCCCCCC(=O)O)C(=O)O)C(=O)N[C@@H](CC(C)C)C(=O)N[C@@H](CCC(=O)O)C(=O)N[C@@H](C)C(=O)NCC(=O)N1CCC[C@H]1C(=O)N[C@@H](CO)C(=O)N[C@@H](CO)C(=O)NCC(=O)N[C@@H](C)C(=O)N1CCC[C@H]1C(=O)N1CCC[C@H]1C(=O)N1CCC[C@H]1C(=O)N[C@@H](CO)C(N)=O)C(C)C [Example 104] (H-Y[Aib]EGTFISDYSI[αMeL]LD[Orn]IHQ[Aib]EFVEYK([AEEA-AEEA-γGlu-C20 diacid])LEAGPSSGAPPPS-NH2) | > 960 | 0.134 | > 910
3 | CC[C@H](C)[C@H](NC(=O)[C@H](CO)NC(=O)[C@H](Cc1ccc(O)cc1)NC(=O)[C@H](CC(=O)O)NC(=O)[C@H](CO)NC(=O)[C@@H](NC(=O)[C@](C)(Cc1ccccc1)NC(=O)[C@@H](NC(=O)CNC(=O)[C@H](CCC(=O)O)NC(=O)C(C)(C)NC(=O)[C@@H](N)Cc1ccc(O)cc1)[C@@H](C)O)[C@@H](C)CC)C(=O)N[C@@H](C)C(=O)N[C@@H](CC(C)C)C(=O)N[C@@H](CC(=O)O)C(=O)N[C@@H](CCCCN)C(=O)N[C@@H](CCCCNC(=O)COCCOCCNC(=O)COCCOCCNC(=O)CC[C@H](NC(=O)CCCCCCCCCCCCCCCCCCC(=O)O)C(=O)O)C(=O)N[C@@H](Cc1c[nH]cn1)C(=O)N[C@@H](CCC(N)=O)C(=O)NC(C)(C)C(=O)N[C@@H](CCC(=O)O)C(=O)N[C@@H](Cc1ccccc1)C(=O)N[C@H](C(=O)N[C@@H](CC(N)=O)C(=O)N[C@@H](Cc1c[nH]c2ccccc12)C(=O)N[C@@H](CC(C)C)C(=O)N[C@@H](CC(C)C)C(=O)N[C@@H](C)C(=O)NCC(=O)NCC(=O)N1CCC[C@H]1C(=O)N[C@@H](CO)C(=O)N[C@@H](CO)C(=O)NCC(=O)N[C@@H](C)C(=O)N1CCC[C@H]1C(=O)N1CCC[C@H]1C(=O)N1CCC[C@H]1C(=O)N[C@@H](CO)C(N)=O)C(C)C [Example 25] (H-Y[Aib]EGT[αMeF]ISDYSIALDKK([AEEA-AEEA-γGlu-C20 diacid])HQ[Aib]EFVNWLLAGGPSSGAPPPS-NH2) | 101 | 0.0417 | 15.8
4 | CC[C@H](C)[C@H](NC(=O)[C@H](CO)NC(=O)[C@H](Cc1ccc(O)cc1)NC(=O)[C@H](CC(=O)O)NC(=O)[C@H](CO)NC(=O)[C@@H](NC(=O)[C@H](Cc1ccccc1)NC(=O)[C@@H](NC(=O)CNC(=O)[C@H](CCC(=O)O)NC(=O)[C@@H](C)NC(=O)[C@@H](N)Cc1ccc(O)cc1)[C@@H](C)O)[C@@H](C)CC)C(=O)N[C@@H](CC(C)C)C(=O)N[C@@H](CC(C)C)C(=O)N[C@@H](CC(=O)O)C(=O)N[C@@H](CCCCN)C(=O)N[C@@H](CCCCNC(=O)COCCOCCNC(=O)COCCOCCNC(=O)CC[C@H](NC(=O)CCCCCCCCCCCCCCCCC(=O)O)C(=O)O)C(=O)N[C@@H](C)C(=O)N[C@@H](CCC(N)=O)C(=O)NC(C)(C)C(=O)N[C@@H](CC(=O)O)C(=O)N[C@@H](Cc1ccccc1)C(=O)N[C@H](C(=O)N[C@@H](CC(N)=O)C(=O)N[C@@H](Cc1c[nH]c2ccccc12)C(=O)N[C@@H](CC(C)C)C(=O)N[C@@H](CC(C)C)C(=O)N[C@@H](C)C(=O)N[C@@H](CCC(N)=O)C(=O)NCC(=O)N1CCC[C@H]1C(=O)N[C@@H](CO)C(=O)N[C@@H](CO)C(=O)NCC(=O)N[C@@H](C)C(=O)N1CCC[C@H]1C(=O)N1CCC[C@H]1C(=O)N1CCC[C@H]1C(=O)N[C@@H](CO)C(N)=O)C(C)C [Example 2] | 379 | 0.0373 | 77.9
5 | CC[C@H](C)[C@H](NC(=O)[C@H](CO)NC(=O)[C@H](Cc1ccc(O)cc1)NC(=O)[C@H](CC(=O)O)NC(=O)[C@H](CO)NC(=O)[C@@H](NC(=O)[C@H](Cc1ccccc1)NC(=O)[C@@H](NC(=O)CNC(=O)[C@H](CCC(=O)O)NC(=O)[C@@H](C)NC(=O)[C@@H](N)Cc1ccc(O)cc1)[C@@H](C)O)[C@@H](C)CC)C(=O)N[C@@H](CC(C)C)C(=O)N[C@@H](CC(C)C)C(=O)N[C@@H](CC(=O)O)C(=O)N[C@@H](CCCCN)C(=O)N[C@@H](CCCCNC(=O)COCCOCCNC(=O)COCCOCCNC(=O)CC[C@H](NC(=O)CCCCCCCCCCCCCCCCC(=O)O)C(=O)O)C(=O)N[C@@H](C)C(=O)N[C@@H](CCC(N)=O)C(=O)NC(C)(C)C(=O)N[C@@H](CC(=O)O)C(=O)N[C@@H](Cc1ccccc1)C(=O)N[C@H](C(=O)N[C@@H](CC(N)=O)C(=O)N[C@@H](Cc1ccncc1)C(=O)N[C@@H](CC(C)C)C(=O)N[C@@H](CC(C)C)C(=O)N[C@@H](C)C(=O)N[C@@H](CCC(N)=O)C(=O)NCC(=O)N1CCC[C@H]1C(=O)N[C@@H](CO)C(=O)N[C@@H](CO)C(=O)NCC(=O)N[C@@H](C)C(=O)N1CCC[C@H]1C(=O)N1CCC[C@H]1C(=O)N1CCC[C@H]1C(=O)N[C@@H](CO)C(N)=O)C(C)C [Example 18] (H-Y[dA]EGTFISDYSILLDKK([AEEA-AEEA-γGlu-C18 diacid])AQ[Aib]DFVN[4Pal]LLAQGPSSGAPPPS-NH2) | 463 | 0.0331 | 158
6 | CC[C@H](C)[C@H](NC(=O)[C@H](Cc1ccccc1)NC(=O)[C@@H](NC(=O)CNC(=O)[C@H](CCC(=O)O)NC(=O)C(C)(C)NC(=O)[C@@H](N)Cc1ccc(O)cc1)[C@@H](C)O)C(=O)N[C@@H](CO)C(=O)N[C@@H](CC(=O)O)C(=O)N[C@@H](Cc1ccc(O)cc1)C(=O)N[C@@H](CO)C(=O)N[C@H](C(=O)N[C@@](C)(CC(C)C)C(=O)N[C@@H](CC(C)C)C(=O)N[C@@H](CC(=O)O)C(=O)N[C@@H](CCC(=O)O)C(=O)N[C@@H](CCCCNC(=O)COCCOCCNC(=O)COCCOCCNC(=O)CC[C@H](NC(=O)CCCCCCCCCCCCCCCCCCC(=O)O)C(=O)O)C(=O)N[C@@H](Cc1c[nH]cn1)C(=O)N[C@@H](CCC(N)=O)C(=O)NC(C)(C)C(=O)N[C@@H](CC(=O)O)C(=O)N[C@@H](Cc1ccccc1)C(=O)N[C@H](C(=O)N[C@@H](CCC(=O)O)C(=O)N[C@@H](Cc1ccncc1)C(=O)N[C@@H](CC(C)C)C(=O)N[C@@H](CC(C)C)C(=O)N[C@@H](C)C(=O)N[C@H](C(=O)NCC(=O)N1CCC[C@H]1C(=O)N[C@@H](CO)C(=O)N[C@@H](CO)C(=O)NCC(=O)N[C@@H](C)C(=O)N1CCC[C@H]1C(=O)N1CCC[C@H]1C(=O)N1CCC[C@H]1C(=O)N[C@@H](CO)C(N)=O)[C@@H](C)O)C(C)C)[C@@H](C)CC [Example 83] (H-Y[Aib]EGTFISDYSI[αMeL]LDEK([AEEA-AEEA-γGlu-C20 diacid])HQ[Aib]DFVE[4Pal]LLATGPSSGAPPPS-NH2) | > 958 | 0.116 | 452
